Experimental data as given in article PMC12305662, “Fragment-Based Development of Small Molecule Inhibitors Targeting Mycobacterium tuberculosis Cholesterol Metabolism” (Journal of Medicinal Chemistry, 2025).
Converted amounts (≈) assume the structure as drawn. “And” between values parts separate entries of the source, which are not always exact repeats. Equal values may be shown once. Read-outs that look alike come from different tables or passages of the source.

Legend:
CYP125 [1] = target: T1, CYP125 (Mycobacterium tuberculosis, UniProt P9WPP1); assay: biochemical; format: binding; conditions: read-out: KD (μM) CYP125
CYP125 [2] = target: T1, CYP125; format: binding; conditions: compound 100 µM, P450 5 µM
CYP142 [3] = target: T2, CYP142 (Mycobacterium tuberculosis, UniProt P9WPL5); conditions: compound 100 µM, P450 5 µM
CYP142 [4] = target: T2, CYP142; assay: biochemical
CYP125 [5] = target: T1, CYP125; assay: LC-MS substrate turnover assay (cholest-4-en-3-one); format: biochemical; conditions: for IC50: CYP125 0.5 μM, cholest-4-en-3-one 5 µM, LC-MS, read-out: CYP125A1 IC50; for Ki: estimated by Cheng-Prusoff, cholest-4-en-3-one Km CYP125 = 2.1 µM, read-out: CYP125A1 KI
Mtb H37Rv [6] = assay: Extracellular Mtb growth on cholesterol, MABA MIC99; format: cell-based, Mycobacterium tuberculosis; conditions: read-out: MABA-MIC99 (W2) H37Rv, cholesterol
Mtb CDC1551 [7] = assay: as above; format: cell-based, Mycobacterium tuberculosis; conditions: read-out: MABA-MIC99 (W2) CDC1551, cholesterol
Mtb H37Rv [8] = assay: Depletion of intracellular ATP (BacTiter Glo), Mtb on cholesterol; format: cell-based, Mycobacterium tuberculosis; conditions: Mycobacterium tuberculosis, H37RV, cholesterol as sole carbon source
Mtb CDC1551 [9] = assay: as above; format: cell-based; conditions: Mycobacterium tuberculosis, cholesterol as sole carbon source
Mtb H37Rv [10] = test system: Mtb H37Rv
Description: (§1) (Mtb) H37Rv or CDC1551 strains were grown in Middlebrook 7H9 broth medium (Difco) supplemented with 0.3 g/L casitone, 0.81 g/L NaCl, 0.05% (v/v) tyloxapol, and either 97 mg/L cholesterol, 4 g/L glucose, or 0.2% glycerol. For inhibitor assays, a 10-fold serial dilution of the test compounds was made in the desired medium in duplicate rows of a 96-well plate. Mtb cells were then added to all the wells at the final concentration of 1 × 10^4 CFU, and plates were incubated at 37 °C for up to 15 days. Minimum inhibitory concentrations (MIC99) were determined using the Microplate Alamar Blue Assay (MABA) on day 15.
(§2) BacTiter Glo reagent (Promega) was added to microtiter plates (1:10 dilution) and luminescence was recorded after 15 min of incubation at room temperature. […] Isoniazid or p-amino salicylic acid were used as positive control compounds for all experiments. Reported MIC and IC50 values are the mean of duplicate treatments.

Mtb CDC1551 [11] = assay: Depletion of intracellular ATP, Mtb on glucose; conditions: glucose as sole carbon source
Description: as §1, §2

[12] = test system: Mtb H37Rv pATB45luc in THP-1 macrophages; assay: microbe, parasite or virus in culture; format: cell-based; conditions: Mycobacterium tuberculosis, 120 h, 5 days post-compound treatment, mean ± SD n = 2, read-out: intracellular growth Mtb IC50
H37Rv Mtb = assay: Extracellular Mtb growth, MABA MIC90 (drug susceptible strain); format: cell-based; conditions: Mycobacterium tuberculosis
[13] = test system: MDR-TB strain K26b00MR 113; assay: microbe, parasite or virus in culture; format: cell-based, Mycobacterium tuberculosis; conditions: for MIC90: Mycobacterium tuberculosis
Mtb (Erdman) = assay: Extracellular Mtb (Erdman) growth on cholesterol-supplemented (0.01%) media, MABA; format: cell-based, Mycobacterium tuberculosis; conditions: MABA 1 week post-compound treatment, mean ± SD n = 3, read-out: mixed media IC50 (Erdman)
CYP142 [14] = target: T2, CYP142
[15] = Mycobacterium tuberculosis, H37RV, 336 h, cholesterol as sole carbon source, 2 weeks post-compound treatment
[16] = Mycobacterium tuberculosis, CDC1551, 336 h, cholesterol as sole carbon source, 2 weeks post-compound treatment
[17] = cholesterol as sole carbon source, 2 weeks post-compound treatment
[18] = 168 h, 1 week post-compound treatment, read-out: ATP-IC50 (W1) H37Rv, cholesterol
[19] = 336 h, 2 weeks post-compound treatment, read-out: ATP-IC50 (W2) H37Rv, cholesterol
[20] = CDC1551, 168 h, 1 week post-compound treatment, read-out: ATP-IC50 (W1) CDC1551, cholesterol
[21] = CDC1551, 336 h, 2 weeks post-compound treatment, read-out: ATP-IC50 (W2) CDC1551, cholesterol
[22] = read-out: ATP IC50 (W1) CDC1551, glucose media, 1 week
[23] = read-out: ATP IC50 (W2) CDC1551, glucose media, 2 weeks

T1 sequence (P9WPP1 whole entry): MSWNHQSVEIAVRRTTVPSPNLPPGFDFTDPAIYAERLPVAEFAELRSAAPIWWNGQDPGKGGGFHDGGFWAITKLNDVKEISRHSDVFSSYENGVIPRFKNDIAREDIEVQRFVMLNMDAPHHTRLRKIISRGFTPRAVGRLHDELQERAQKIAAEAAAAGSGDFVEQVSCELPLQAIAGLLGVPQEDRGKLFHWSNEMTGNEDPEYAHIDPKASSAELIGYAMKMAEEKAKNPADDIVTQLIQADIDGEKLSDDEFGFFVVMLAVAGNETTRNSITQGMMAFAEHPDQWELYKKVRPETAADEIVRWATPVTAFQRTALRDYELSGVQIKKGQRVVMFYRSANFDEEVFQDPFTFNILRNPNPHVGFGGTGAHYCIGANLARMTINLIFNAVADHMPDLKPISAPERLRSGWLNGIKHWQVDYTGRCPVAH
T2 sequence (P9WPL5 whole entry): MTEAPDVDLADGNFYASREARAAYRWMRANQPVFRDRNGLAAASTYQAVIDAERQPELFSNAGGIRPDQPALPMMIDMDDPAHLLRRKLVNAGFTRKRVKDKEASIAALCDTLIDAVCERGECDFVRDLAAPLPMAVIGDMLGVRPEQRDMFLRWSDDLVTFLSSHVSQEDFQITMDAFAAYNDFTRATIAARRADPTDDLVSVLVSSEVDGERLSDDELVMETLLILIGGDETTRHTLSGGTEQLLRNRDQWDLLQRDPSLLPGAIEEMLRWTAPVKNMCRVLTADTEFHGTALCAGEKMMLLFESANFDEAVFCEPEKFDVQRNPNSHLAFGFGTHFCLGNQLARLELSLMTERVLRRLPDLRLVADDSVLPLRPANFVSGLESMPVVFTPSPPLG

| Molecule | Kd (CYP125 [1]) [µM] | Kd (CYP142 [4]) [µM] | IC50 (CYP125 [5]) [µM] | Ki (CYP125 [5]) [µM] | MIC99 (Mtb H37Rv [6]; [15]) [µM] | MIC99 (Mtb CDC1551 [7]; [16]) [µM] | IC50 (Mtb H37Rv [8]; [18]) [µM] | IC50 (Mtb H37Rv [8]; [19]) [µM] | IC50 (Mtb CDC1551 [9]; [20]) [µM] | IC50 (Mtb CDC1551 [9]; [21]) [µM] | IC50 (Mtb H37Rv [10]) | IC50 (Mtb CDC1551 [11]; [22]) [µM] | also measured |
| --- | --- | --- | --- | --- | --- | --- | --- | --- | --- | --- | --- | --- | --- |
| CS(=O)(=O)Nc1ccc(Cc2ccncc2)cc1 [3g] | 0.23 ± 0.04 | 1.1 ± 0.14 |  |  |  |  |  |  |  |  |  |  | CYP125 Δλmax (nm) LS (CYP125 [2]; low spin population, '-' = no LS maxima present): 30 nm; CYP125 LS/HS (CYP125 [2]; ratio of low spin to high spin CYP125): 2.7; CYP142 Δλmax (nm) (CYP142 [3]): 0 nm |
| O=C(Nc1ccc(Cc2ccncc2)cc1)c1ccccc1 [5a, N-(4-(Pyridin-4-ylmethyl)phenyl)benzamide] | 0.54 ± 0.22 | 1.1 ± 0.1 | 4.3 ± 0.5 | 1.3 | 25 (≈ 7.21 µg/mL) | > 50 | 19 | 38 | 19 | 38 |  |  | MIC99 (Mtb CDC1551 [7]; [17]): >50 µM |
| CN(c1ccncc1)c1ccc(NC(=O)c2ccccc2)cc1 [5c, N-(4-(Methyl(pyridin-4-yl)amino)phenyl)benzamide] | 7 ± 0.21 | 3.1 ± 0.18 | 26 ± 2.4 | 7.7 | > 50 |  | 9.4 | 19 |  |  |  |  | MIC99 (Mtb H37Rv [6]; [17]): >50 µM |
| O=C(NCc1ccc2[nH]ccc2c1)c1ccc(Cc2ccncc2)cc1 [5f, N-((1H-Indol-5-yl)methyl)-4-(pyridin-4-ylmethyl)benzamide] | 0.59 ± 0.24 | 3.2 ± 0.04 | 3.6 ± 0.41 | 1.1 | > 50 | > 50 | > 50 | > 50 | > 50 | > 50 | > 50 µM | > 50 | MIC99 (Mtb H37Rv [6]; [17]): >50 µM; MIC99 (Mtb CDC1551 [7]; [17]): >50 µM; IC50 (Mtb CDC1551 [11]; [23]): > 50 µM |
| C[C@@H](NC(=O)c1cccc(Cc2ccncc2)c1)c1ccccc1 [5h, (R)-N-(1-Phenylethyl)-3-(pyridin-4-ylmethyl)benzamide] | 40 ± 2 | 3.3 ± 0.29 |  |  | 25 (≈ 7.91 µg/mL) | 25 (≈ 7.91 µg/mL) | 9.4 | 19 | 2.3 | 38 |  | 19 |  |
| C[C@@H](NC(=O)c1ccc(Cc2ccncc2)cc1)c1ccccc1 [5i, (R)-N-(1-Phenylethyl)-4-(pyridin-4-ylmethyl)benzamide] | 7.4 ± 1 | 0.64 ± 0.47 | 33 ± 3.7 | 9.8 | 25 (≈ 7.91 µg/mL) | 25 (≈ 7.91 µg/mL) | 9.4 | 4.7 | 2.3 | 38 |  | 19 |  |
| O=S(=O)(Nc1ccc(Cc2ccncc2)cc1)c1ccccc1 [5j, N-(4-(Pyridin-4-ylmethyl)phenyl)benzenesulfonamide] | 0.27 ± 0.02 |  | 1.5 ± 0.16 | 0.44 | 50 (≈ 16.2 µg/mL) | 25 (≈ 8.11 µg/mL) | 38 | 50 | 9.4 | > 50 | 19 µM | 38 | IC50 (Mtb CDC1551 [11]; [23]): 38 µM |
| COc1ccc(CNc2ccc(N(C)c3ccncc3)cc2)cc1 [5n, N^1-(4-Methoxybenzyl)-N^4-methyl-N^4-(pyridin-4-yl)benzene-1,4-diamine] | 2.9 ± 0.2 | 0.2 ± 0.01 | 12 ± 1.2 | 3.6 | 50 (≈ 16 µg/mL) |  | 4.7 | 9.4 |  |  |  |  |  |
| COc1ccc(C(C)Nc2ccc(Cc3ccncc3)cc2)cc1 (stereo not drawn) [5o, N-(1-(4-Methoxyphenyl)ethyl)-4-(pyridin-4-ylmethyl)aniline] | 0.8 ± 0.32 |  | 4.2 ± 0.48 | 1.2 | 19 (≈ 6.05 µg/mL) |  | 0.15 | 0.59 |  |  | 2.3 µM |  |  |
| NNC(=O)c1ccncc1 [Isoniazid, isoniazid, reference compound] |  |  |  |  | < 0.1 |  | < 0.1 | < 0.1 |  |  |  |  | MIC99 (Mtb H37Rv [6]; cholesterol as sole carbon source, 2 weeks post-compound treatment, listed as Inh.): <0.1 µM; IC50 [12]: 0.1 ± 0.01 µM; MIC90 (H37Rv Mtb; 168 h, MABA 1 week post-compound treatment, glucose-casitone (standard) media, read-out: MIC90 (W1) H37Rv): 0.19 to 0.39 µM (≈ 0.0261 to 0.0535 µg/mL); MIC90 (H37Rv Mtb; 336 h, MABA 2 weeks post-compound treatment, read-out: MIC90 (W2) H37Rv): 0.39 µM (≈ 0.0535 µg/mL); MIC90 (W1) MDR-TB ([13]; MABA 1 week post-compound treatment, K26b00MR 113): 12.5 to 25 µM; fold higher value against MDR-TB than H37Rv ([13]; MABA, 1 and 2 weeks): 50–150 fold; MIC90 ([13]; 168 h, read-out: MIC90 (W1) MDR-TB, MABA 1 week post-compound treatment, K26b00MR 113): 13 to 25 µM (≈ 1.78 to 3.43 µg/mL); MIC90 ([13]; 336 h, read-out: MIC90 (W2) MDR-TB, MABA 2 weeks post-compound treatment, K26b00MR 113): 50 µM (≈ 6.86 µg/mL) |
| COc1c(N2C[C@@H]3CCCN[C@@H]3C2)c(F)cc2c(=O)c(C(=O)O)cn(C3CC3)c12 [Moxifloxacin, moxifloxacin, reference compound] |  |  |  |  |  |  |  |  |  |  |  |  | IC50 (Mtb (Erdman)): 0.33 ± 0.01 µM |
| Nc1ccc(C(=O)O)c(O)c1 [p-aminosalicylic acid, reference compound] |  |  |  |  |  |  | 0.04 | 0.29 | 0.04 | 2.3 | < 0.04 µM and 0.07 µM | < 0.04 | MIC99 (Mtb H37Rv [6]; Mycobacterium tuberculosis, H37RV, 336 h): 0.19 µM (≈ 0.0291 µg/mL); MIC99 (Mtb CDC1551 [7]; Mycobacterium tuberculosis, CDC1551, 336 h): 0.39 µM (≈ 0.0597 µg/mL); IC50 [12]: 2.4 ± 0.12 µM; IC50 (Mtb CDC1551 [11]; [23]): 0.07 µM |
| N-Phenylpyridin-4-amine [2a] | 35 ± 5.8 |  |  |  |  |  |  |  |  |  |  |  | CYP125 Δλmax (nm) HS (CYP125 [2]; high spin population, '-' = no HS maxima present): 0 nm; Kd (CYP142 [14]): 1.1 ± 0.2 µM; CYP142 Δλmax (nm) (CYP142 [3]): 4 nm |
